Results from US5075499A, “Calcium supplementation by dicalcium citrate-lactate” (Board of Regents, The University of Texas System, priority 1988, dated 1991).

Assays:
[1] = Bulk density of the dried granular composition; type: physicochemical
Description: 38.4 grams of citric acid powder and 40 grams of calcium carbonate were thoroughly mixed in a large beaker. 36 grams of lactic acid, 50 weight percent solution, was slowly added with rapid stirring. 40 grams of water was then introduced slowly in small portions, each portion was added after the CO2 evolution slowed or ceased. After drying, the material was sized and found to have a bulk density greater than 1.1 g/cc. Bulk density was determined by an Archimedean method. This dense granular dicalcium citrate-lactate was subjected to compression tableting to form tablets containing 10 meq (200 milligrams) of calcium, and 7.5 meq (472 milligrams) of citrate, with a size of 0.29 (7.47 millimeters) inch by 0.74 (1.9 centimeters) inch.
The dicalcium citrate-lactate tablets of the present invention were also produced on a large scale. 38.4 kilograms of citric acid powder and calcium carbonate were placed in a Colton 7 cubic ft. ribbon mixer and blended for 2 minutes. Thirty six kilograms of the lactic acid, 50 weight percent solution, were added in approximately three equal portions, 3 minutes apart with continuous mixing. Water (40 kilograms) was added in approximately four equal portions 2-3 minutes apart with continuous mixing. Mixing continued for 10 minutes. The resultant granular and lumpy material was passed through a Fitzmill, knives forward, with no screen, trayed and dried at 212° F.-221° F. (100° C.-105° C.) for three hours. The dried product was sized and its bulk density was determined to be greater than 1.1 g/cc. The sizing was done using a Fitzmill Model No. 6 with a 31262AA screen.
The procedure previously described in Example 2 was followed with the exception of calcium carbonate being replaced by calcium oxide. Dicalcium citrate-lactate having a bulk density of greater than 0.7 g/cc was produced.
The procedure previously described in Example 2 was followed with the exception of calcium carbonate being replaced by calcium hydroxide. Calcium citrate lactate having a bulk density of greater than 0.8 g/cc was produced.

[2] = osteoporosis prone postmenopausal women; cited from earlier work
[3] = cited from earlier work
[4] = cited from earlier work; for effectiveness in raising urinary citrate compared with tricalcium dicitrate: vs tricalcium dicitrate
[5] = Calcium absorption from oral tablets (increment in urinary calcium during the second two hours, Example 5); settings: 400 mg elemental calcium, ten normal volunteers, SD
Description: Calcium absorption was measured from the increment in urinary calcium during the second two hours following the administration of the oral calcium tablets.
The calcium absorption was measured from the increment in urinary calcium during the second two hours following oral calcium load, expressed as mg calcium/dl glomerular filtrate (GF).

[6] = cited from earlier work; remark: listed apart in the source

What does the source list for `CC(O)C(=O)[O-].O=C([O-])CC(O)(CC(=O)[O-])C(=O)[O-].[Ca+2].[Ca+2]` [dicalcium citrate-lactate]?
bulk density ([1]; from calcium carbonate, large batch (Example 2)): greater than 1.1 g/cc; bulk density ([1]; from calcium carbonate, small batch (Example 1), Archimedean method): greater than 1.1 g/cc; bulk density ([1]; from calcium hydroxide, large batch (Example 4)): greater than 0.8 g/cc; bulk density ([1]; from calcium oxide, large batch (Example 3)): greater than 0.7 g/cc

For estrogen, which “prevention of further bone losses” value [2] is on record?
Its value is “further bone losses in osteoporosis prone postmenopausal women may be prevented”.

What does the source list for `O=C(O)CC(O)(CC(=O)O)C(=O)O` [tricalcium dicitrate]?
precipitation out of simulated duodenal juice [3]: did not precipitate out of simulated duodenal juice; urinary citrate ([4]; Harvey, Zobitz and Pak 1985): increased urinary citrate; calcium absorption (increment in urinary calcium) [5]: 0.044±0.051 mg/dl GF

Which “effectiveness in raising urinary citrate compared with tricalcium dicitrate” value [4] does the source give for `CC(O)C(=O)O` (stereo not drawn) [calcium lactate] here?
The value was “not as effective as tricalcium dicitrate”.

For `O=C(O)O` [calcium carbonate], which “prevention of further bone losses” value [2] is on record?
Its value is “to a lesser extent”.

What does the source list for `O=C(O)[C@H](O)[C@@H](O)[C@H](O)[C@H](O)CO` [calcium gluconate]?
effectiveness in raising urinary citrate compared with tricalcium dicitrate [4]: not as effective as tricalcium dicitrate; aqueous solubility [6]: high aqueous solubility
